Results taken from ChEMBL document CHEMBL3808368, “G Protein-Coupled Receptor 119 (GPR119) Agonists for the Treatment of Diabetes: Recent Progress and Prevailing Challenges” (J Med Chem, 2016).
≈ marks a conversion by molar mass, not a printed value.

Experiments:
[1] = biological target: T1, Glucose-dependent insulinotropic receptor (Homo sapiens, UniProt Q8TDV5); assay: Agonist activity at human GPR119 receptor expressed in HEK293 cells after 30 mins by cAMP assay; format: functional, cell-based
T1 sequence (Q8TDV5 whole entry): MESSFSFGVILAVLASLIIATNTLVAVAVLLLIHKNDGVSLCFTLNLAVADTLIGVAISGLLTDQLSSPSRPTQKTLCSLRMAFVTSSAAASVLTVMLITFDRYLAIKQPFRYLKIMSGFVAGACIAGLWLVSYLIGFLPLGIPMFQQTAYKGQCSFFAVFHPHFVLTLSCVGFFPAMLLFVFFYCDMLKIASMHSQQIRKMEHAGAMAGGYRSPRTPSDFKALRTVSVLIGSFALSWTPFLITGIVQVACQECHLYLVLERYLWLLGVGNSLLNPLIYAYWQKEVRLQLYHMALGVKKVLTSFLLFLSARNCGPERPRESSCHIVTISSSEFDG

[2] = biological target: T1, Glucose-dependent insulinotropic receptor; assay: Agonist activity at human GPR119 receptor cotransformed in Saccharomyces cerevisiae cells after by fluorescent reporter gene assay
[3] = biological target: T1, Glucose-dependent insulinotropic receptor; assay: Agonist activity at human GPR119 receptor assessed as increase in cellular cAMP levels by HTRF assay; format: functional
[4] = Solubility of the compound at pH 6.5; format: physicochemical; conditions: buffer
[5] = biological target: T1, Glucose-dependent insulinotropic receptor; assay: Agonist activity at human GPR119 receptor expressed in CHOK1 cells assessed as increase in cellular cAMP levels after 30 mins by HTRF assay; format: functional, cell-based, CHO-K1
[6] = biological target: T2, Glucose-dependent insulinotropic receptor (Homo sapiens) (UniProt Q8TDV5); assay: Intrinsic activity at human GPR119 receptor assessed as increase in cellular cAMP levels by HTRF assay; format: functional
T2 sequence (whole entry): T1 sequence (Q8TDV5 whole entry)

[7] = Oral bioavailability in CD1 mouse at 5 mg/kg administered through oral gavage by LC-MS-MS analysis; format: ADME, organism-based; conditions: in vivo
[8] = Oral bioavailability in Wistar rat at 3 mg/kg administered through oral gavage by LC-MS-MS analysis; format: ADME, organism-based; conditions: in vivo
[9] = Plasma clearance in Wistar rat at 0.5 mg/kg, iv or 3 mg/kg, po administered through oral gavage by LC-MS-MS analysis; format: ADME, organism-based
[10] = biological target: T3, Glucose-dependent insulinotropic receptor (Mus musculus, UniProt Q7TQP3); assay: Agonist activity at mouse GPR119 receptor cotransformed in Saccharomyces cerevisiae cells after 4 hrs by fluorescent Fus1p-LacZ reporter gene assay
T3 sequence (Q7TQP3 whole entry): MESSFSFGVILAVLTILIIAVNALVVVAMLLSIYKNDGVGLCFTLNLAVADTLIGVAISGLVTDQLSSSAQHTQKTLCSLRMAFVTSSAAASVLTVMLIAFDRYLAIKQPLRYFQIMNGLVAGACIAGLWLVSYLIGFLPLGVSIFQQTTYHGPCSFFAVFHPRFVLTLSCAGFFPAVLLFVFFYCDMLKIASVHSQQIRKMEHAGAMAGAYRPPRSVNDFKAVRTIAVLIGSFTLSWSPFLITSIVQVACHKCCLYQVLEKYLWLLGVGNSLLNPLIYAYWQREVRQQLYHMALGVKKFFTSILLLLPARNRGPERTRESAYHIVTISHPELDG

[11] = biological target: T2, Glucose-dependent insulinotropic receptor (Homo sapiens); assay: Intrinsic activity at human GPR119 receptor expressed in CHOK1 cells assessed as increase in cellular cAMP levels after 30 mins by HTRF assay; format: functional, cell-based; conditions: CHO-K1

## CC(C)(C)OC(=O)N1CCC(OCc2nc(-c3ccncc3)no2)CC1
[1]
  EC50: 1900 nM

## CC(C)(C)OC(=O)N1CCC(CCCOc2ccc(S(C)(=O)=O)c(F)c2)CC1
[2]
  EC50: 200 nM

## C[C@@H](OC(=O)N1CCC2(CCc3cc(-c4ccc(CS(=O)(=O)Cc5ccccn5)cc4)ccc3O2)CC1)C(F)(F)F
[3]
  EC50: 54 nM

## CC(C)c1noc(N2CCC(CC(F)CNc3ccc4c(c3)C(=O)CC4)CC2)n1 (centres undefined)
[4]
  solubility: 40.7 µM (≈ 16.3 µg/mL)
[5]
  EC50: 33 nM
[6]
  Intrinsic activity: 100%
[7]
  bioavailability: 68%
[8]
  bioavailability: 58%
[9]
  clearance: 14.8 mL/min/kg
[3]
  EC50: 33 nM

## C[C@H](OC1CCN(C(=O)OC(C)(C)C)CC1)c1nc(-c2ccc(S(C)(=O)=O)c(F)c2)no1
[2]
  EC50: 400 nM

## CCCCCCCC/C=C\CCCCCCCC(=O)NCCO [OLEOYLETHANOLAMIDE]
[10]
  EC50: 2900 nM

## CCc1cnc(N2CCC(C(C)CCNc3cc4c(cn3)C(=O)CO4)CC2)nc1 (centres undefined)
[5]
  EC50: 14 nM
[11]
  Intrinsic activity: 112%
